Measurements: patent US20240132522A1, “HETEROCYCLIC COMPOUNDS AND METHODS OF USE THEREOF” (1cBio, Inc., priority 2022, published 2024)
Structures can show the parent of a compound that is named as a salt.

Each compound was assayed against recombinant human PARP2 (Homo sapiens, UniProt Q9UGN5) (assay: PARP2 fluorescence polarization binding assay). Conditions: binding IC50, GST-tagged PARP2 20 nM, PARPi-FL probe 3 nM, 4 h at RT.
Procedure: In some embodiments, the biological assay measures PARP-2 binding by way of fluorescence polarization measurements. In some embodiments, binding of a test compound to recombinant human PARP-2 reduces the amount of binding of a fluorescent probe, and consequently reduces the detected level of fluorescence polarization. […] In some embodiments, the serial dilutions, e.g., 100 nL of serial dilution, 90 nL of serial dilution, 80 nL of serial dilution, 70 nL of serial dilution, 60 nL of serial dilution, 50 nL of serial dilution, 30 nL of serial dilution, 20 nL of serial dilution, or 10 nL of serial dilution, are added to a multi-welled plate, e.g., a 1536-well plate, a 384-well plate, or a 96-well plate. In some embodiments, PARP-2, e.g., GST-tagged PARP-2, is diluted in assay buffer, e.g., 50 μL of assay buffer, 40 μL of assay buffer, e.g., 30 μL of assay buffer, 20 μL of assay buffer, 10 μL of assay buffer, or 5 μL of assay buffer, and is added to the plate. In some embodiments, the plate is centrifuged, e.g., at 1000 rpm for 1 min, and incubated, e.g., incubated for 30 minutes at room temperature (RT). In some embodiments, a fluorescent probe, e.g., 10 μL of 6 nM PARPi-FL (TOCRIS, Cat #6461), is diluted in an assay buffer and is added to the plate. […] In some embodiments, the plate is centrifuged, e.g., at 1000 rpm for 1 minute, and the assay plate is incubated, e.g., for 4 h at RT. In some embodiments, the samples in each well are read using a plate reader, e.g., an Envision instrument using excitation=480 nm, and emission wavelength=FITC FP-P pol 535 nm & FITC FP-S pol 535 nm). […] In some embodiments, binding IC50 values are calculated using XLFit (equation 201: […])^D))), where A=bottom, B=top, C=IC50, and D=slope) with a floating top and bottom for curves. Compounds of the present disclosure were tested in a PARP2 fluorescence polarization binding assay at Pharmaron (Beijing, P.R. China). In this biochemical assay, binding of test compound to recombinant human PARP2 reduces the amount of binding of a fluorescent probe, and consequently reduces the detected level of fluorescence polarization. Test compound stock solutions were prepared in DMSO and then serially diluted into 10 concentrations by 3-fold dilution in a 384-well plate using a TECAN EVO200. […] Samples in each well were read using an Envision instrument (Perkin-Elmer; Ex=480 nm Em=FITC FP-P pol 535 nm & FITC FP-S pol 535 nm). […] Binding IC50 values were calculated using XLFit (equation 201: […])^D))), where A=bottom, B=top, C=IC50, and D=slope) with a floating top and bottom for curves.

Sequence of recombinant human PARP2 (Q9UGN5 whole entry): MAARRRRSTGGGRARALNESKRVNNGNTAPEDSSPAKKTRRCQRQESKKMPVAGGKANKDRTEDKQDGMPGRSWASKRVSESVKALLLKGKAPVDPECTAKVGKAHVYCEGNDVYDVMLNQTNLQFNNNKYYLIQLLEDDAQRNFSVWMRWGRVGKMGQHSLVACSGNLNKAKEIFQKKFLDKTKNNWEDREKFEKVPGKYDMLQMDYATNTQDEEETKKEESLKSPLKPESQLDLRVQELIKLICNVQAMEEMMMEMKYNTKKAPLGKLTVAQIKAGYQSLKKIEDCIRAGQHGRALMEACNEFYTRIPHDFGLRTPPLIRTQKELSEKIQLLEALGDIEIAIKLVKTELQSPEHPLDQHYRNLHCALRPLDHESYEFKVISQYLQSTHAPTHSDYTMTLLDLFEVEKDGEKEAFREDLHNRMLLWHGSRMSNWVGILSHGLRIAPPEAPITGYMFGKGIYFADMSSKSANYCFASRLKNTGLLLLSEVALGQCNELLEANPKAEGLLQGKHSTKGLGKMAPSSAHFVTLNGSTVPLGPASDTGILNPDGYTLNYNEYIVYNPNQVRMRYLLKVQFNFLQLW

IC50 [µM]	SMILES
≥ 3	CCc1cc2ncc(CN3CC4(C3)CN(c3ccc(C(=O)NC)nc3)C4)cc2[nH]c1=O [Compound No. 9, 5-(6-((7-ethyl-6-oxo-5,6-dihydro-1,5-naphthyridin-3-yl)methyl)-2,6-diazaspiro[3.3]heptan-2-yl)-N-methylpicolinamide formate]
≥ 3	CCc1cc2ncc(CN3CCCN(c4ccc(C(=O)NC)nc4)CC3)cc2[nH]c1=O [Compound No. 6, 5-(4-((7-ethyl-6-oxo-5H-1,5-naphthyridin-3-yl)methyl)-1,4-diazepan-1-yl)-N-methylpyridine-2-carboxamide]
≥ 3	CCc1cc2ncc(CNC3CC(Nc4ccc(C(=O)NC)nc4)C3)cc2[nH]c1=O (stereo not shown) [Compound No. 29, 5-((3-(((7-ethyl-6-oxo-5,6-dihydro-1,5-naphthyridin-3-yl)methyl)amino)cyclobutyl)amino)-N-methylpicolinamide]

SMILES	IC50 [µM]
CCc1cc2ncc(CN3CC4CN(c5ccc(C(=O)NC)nc5)CC4C3)cc2[nH]c1=O (stereo not shown) [Compound No. 7, 5-(5-((7-ethyl-6-oxo-5,6-dihydro-1,5-naphthyridin-3-yl)methyl)hexahydropyrrolo[3,4-c]pyrrol-2(1H)-yl)-N-methylpicolinamide]	≥ 3
